Reference: US20180153870A1, “BIPERIDEN FOR TREATING CANCER” (Universitätsklinikum Hamburg-Eppendorf, priority 2015, published 2018)

How the values were obtained:
Type in all cases: cell-based, human
BxPC3 = assay: cleaved caspase 3 sandwich ELISA (apoptosis), BxPC3; conditions: 29.6 μg/ml biperiden
Experimental: [The procedure below names another cell line; the source lists this cell line under the same test.] (§1) To determine the effect of biperiden, mepazine and combinations of the two active ingredients on apoptosis in cell lines, a “cleaved caspase 3” sandwich ELISA was used. The pancreatic cancer cell lines L3.6pl res, L3.6pl wt, Panc-1, Panc-2 and the reference cell line HPDE were treated with 29.6 μg/ml biperiden or 25 μM mepazine or 15 μM mepazine+3.7 μg/ml biperiden or only with vehicle (DMSO). The cleaved caspase 3 was measured 24, 48 and 72 hours after incubation. The apoptosis within the cells was measured using a PathScan “cleaved caspase 3” sandwich ELISA (Cell Signaling, #7190C) according to the manufacturers instructions. Each experiment was carried out at least 3 times in duplicate.

Panc-1 = assay: cleaved caspase 3 sandwich ELISA (apoptosis), Panc-1; conditions: 29.6 μg/ml biperiden, after 24 hours
Experimental: as §1

Panc-2 = assay: cleaved caspase 3 sandwich ELISA (apoptosis), Panc-2; conditions: 29.6 μg/ml biperiden
Experimental: as §1

HPDE = assay: cleaved caspase 3 sandwich ELISA (apoptosis), HPDE; conditions: 29.6 μg/ml biperiden
Experimental: as §1

L3.6pl wt = assay: cleaved caspase 3 sandwich ELISA (apoptosis), L3.6pl wt; conditions: 29.6 μg/ml biperiden
Experimental: as §1

L3.6pl res = assay: cleaved caspase 3 sandwich ELISA (apoptosis), L3.6pl res; conditions: 29.6 μg/ml biperiden
Experimental: as §1

[1] = test system: tested cell lines (L3.6pl res, L3.6pl wt, Panc-1, Panc-2, BxPC3, HPDE); assay: cleaved caspase 3 sandwich ELISA (apoptosis), all tested cell lines; conditions: 29.6 μg/ml biperiden
Experimental: To determine the effect of biperiden, mepazine and combinations of the two active ingredients on apoptosis in cell lines, a “cleaved caspase 3” sandwich ELISA was used. […] The cleaved caspase 3 was measured 24, 48 and 72 hours after incubation. The apoptosis within the cells was measured using a PathScan “cleaved caspase 3” sandwich ELISA (Cell Signaling, #7190C) according to the manufacturers instructions. Each experiment was carried out at least 3 times in duplicate.

## OC(CCN1CCCCC1)(c1ccccc1)C1CC2C=CC1C2 (stereo not drawn) [biperiden]
BxPC3; after 24 hours
  cleaved caspase 3: 813.1±37.7 RLU
BxPC3; after 24 hours, p=0.002
  increase of apoptosis rate compared to vehicle: 369.8%
BxPC3; after 48 hours
  cleaved caspase 3: 1046.1 ± 34.7 RLU
BxPC3; after 48 hours, p=0.004
  increase of apoptosis rate compared to vehicle: 357.5%
BxPC3; after 72 hours
  cleaved caspase 3: 862.8 ± 85.2 RLU
BxPC3; after 72 hours, p=0.032
  increase of apoptosis rate compared to vehicle: 230.9%
Panc-1
  cleaved caspase 3: 325.1±48.3 RLU
Panc-1; p=0.049
  increase of apoptosis rate compared to vehicle: 125.3%
Panc-2; after 24 hours
  cleaved caspase 3: 360.0±11.0 RLU
Panc-2; after 24 hours, p=0.029
  increase of apoptosis rate compared to vehicle: 109.1%
Panc-2; after 48 hours
  cleaved caspase 3: 306.0±74.8 RLU
Panc-2; after 48 hours, p=0.047
  increase of apoptosis rate compared to vehicle: 65.3%
HPDE; after 48 hours
  cleaved caspase 3: 265.3±27.8 RLU
HPDE; after 48 hours, p=0.037
  increase of apoptosis rate compared to vehicle: 132%
HPDE; after 72 hours
  cleaved caspase 3: 368.4±33.5 RLU
HPDE; after 72 hours, p=0.002
  increase of apoptosis rate compared to vehicle: 283.9%
L3.6pl wt; after 24 hours
  cleaved caspase 3: 443.4±18.1 RLU
L3.6pl wt; after 24 hours, p<0.001
  increase of apoptosis rate compared to vehicle: 210.4%
L3.6pl wt; after 48 hours
  cleaved caspase 3: 386.2±15.9 RLU
L3.6pl wt; after 48 hours, p=0.028
  increase of apoptosis rate compared to vehicle: 83.5%
L3.6pl res; after 24 hours
  cleaved caspase 3: 770.0±72.5 RLU
L3.6pl res; after 24 hours, p=0.008
  increase of apoptosis rate compared to vehicle: 274%
L3.6pl res; after 48 hours
  cleaved caspase 3: 848.1±45.7 RLU
L3.6pl res; after 48 hours, p=0.003
  increase of apoptosis rate compared to vehicle: 273.8%
L3.6pl res; after 72 hours
  cleaved caspase 3: 633.3±55.7 RLU
L3.6pl res; after 72 hours, p=0.021
  increase of apoptosis rate compared to vehicle: 204.0%
[1]
  apoptosis: increased apoptosis was observed in all cell lines
